Patent publication US9856232B1, “Dihydropyrimidinone derivatives” (KING SAUD UNIVERSITY, priority 2017, dated 2018)
Marks after values point to notes of the source that are not given here.

Columns and labels:
[1] = test system: gastric secretion in pylorus-ligated Shay rats; assay: Pylorus-ligated rats: gastric secretion, acidity and lesion index; assay type: in vivo, Albino Wistar rats; set-up: Ulcer Index, pylorus-ligated Shay rats: scale not given here; conditions: i.p., 6 h after pylorus ligation, mean ± SE
Protocol: (§1) Albino Wistar rats of either sex, approximately the same age, weighing 150 to 200 g and fed on a diet of standard chow were used in this study. They were randomly divided into experimental groups of six rats each. Compounds (N-1 to N-18) 12.5, 25, and 50 mg/kg were given orally in the anti-ulcer studies and intraperitoneally for gastric secretion evaluation. The rats were sacrificed, and the stomachs removed and opened along the greater curvature, After washing with saline, the gastric lesions were quantified by a person unaware of the treatments. The animal study protocol was approved by the Research and Ethics Committee of the Experimental Animal Care Society, College of Pharmacy, King Saud University, Riyadh, Saudi Arabia.
Pylorus-ligated rats: Rats were fasted for 36 hours with access to water ad libitum before pylorus ligation under ether anesthesia was carried out. Care was taken not to cause bleeding or to occlude blood vessels. Compounds (N-3, N-8, N-11, and N-15) were administered intraperitoneally immediately after pylorus ligation. The rats were sacrificed at 6 hours after pylorus ligation. The stomachs were removed, the contents were collected, volumes measured, centrifuged and analyzed for tritratable acidity against […], NaOH at pH 7.0. Table 5 provides the effect of compounds on gastric secretion, acidity, and gastric lesion index in pylorus-ligated Shay rats (mean±SE).

[2] = test system: malondialdehyde in stomach tissue, induced by 80% ethanol; assay: Determination of malondialdehyde (MDA); assay type: in vivo, Albino Wistar rats; conditions: mean ± SE
Protocol: as §1
Determination of malondialdehyde (MDA): The animals were sacrificed 1 hour after ethanol administration. The stomachs were removed and each was homogenized in 0.15 mol/L KCl (at 4° C.) in a Potter-Elvehjem type C homogenizer to give a 10% w/v homogenate. Aliquots of homogenate 1 mL in volume were incubated at 37° C. for 3 hours in a metabolic shaker. Then 1 mL of 10% aqueous TCA was added and mixed. The mixture was then centrifuged at 800 g for 10 minutes. One milliliter of the supernatant was removed and mixed with 1 mL of 0.67% w/v thiobarbituric acid in water and placed in a boiling water bath for 10 minutes. The mixture was cooled and diluted with 1 mL distilled water. The absorbance of the solution was then read at 535 nm. The content of malondialdehyde (nmol/g wet tissue) (index of the magnitude of lipid peroxidation) was then calculated, by reference to a standard curve of malondialdehyde solution. Table 7 provides the effect of compounds on the levels of MDA, NP_SH, and total protein in stomach tissue induced by 80% ethanol (mean±SE).

[3] = test system: gastric mucosal non-protein sulfhydryls, induced by 80% ethanol; assay: Estimation of non-protein sulfhydryls (NP-SH); assay type: in vivo, Albino Wistar rats; conditions: stomach tissue, 80% ethanol-treated rats, mean ± SE
Protocol: as §1
Estimation of non-protein sulfhydryls (NP_SH): Gastric mucosal non-protein sulfhydryls were measured according to the method. The glandular part of the stomach was homogenized in ice-cold 0.02 mmol/L ethylenediaminetetraacetic acid (EDTA). Aliquots of 5 mL of the homogenates were mixed in 15 mL test tubes with 4 mL of distilled water and 1 mL of 50% trichloroacetic acid (TCA). The tubes were shaken intermittently for 10 minutes and centrifuged at 3000 r/min. Two milliliters of supernatant were mixed with 4 mL of 0.4 mol/L Tris buffer at pH 8.9. Then 0.1 ML of 5, 5′-dithio-bis (2-nitrobenzoic acid) (DTNB) was added and the sample was shaken. The absorbance was measured within 5 minutes of DTNB addition at 412 nm against a reagent blank.

in vivo = conditions: mouse
From the text: (§2) At the end of the study period, expired animals were counted for the calculation of LD50. The following arithmetic method from Karber (Arch. Exptl. Pathol. Pharmakol, […], 162, 480-483) was used for the determination of LD50: LD50=LD100−Σ×(a×b)/n
(§3) wherein n=total number of animals in a group; a=the difference between two successive doses of administered extract/substance; b=the average number of dead animals in two successive doses; and LD100=lethal dose causing the 100% death of all test animals.
(§4) Table 8 provides the LD50 values of the compounds determined by the Karber method.

mouse = assay: in vivo; conditions: 24 h
From the text: as §2, §3, §4

[4] = dose 12.5, 80% ethanol-treated rats
[5] = dose 25, 80% ethanol-treated rats
[6] = dose 50, 80% ethanol-treated rats

| SMILES | Titratable Acidity ([1]; 12.5 mg/kg) [mEg/L] | Ulcer Index, pylorus-ligated Shay rats ([1]; 12.5 mg/kg) | Volume of Gastric Content ([1]; 12.5 mg/kg) [mL] | Titratable Acidity ([1]; 25 mg/kg) [mEg/L] | Ulcer Index, pylorus-ligated Shay rats ([1]; 25 mg/kg) | Volume of Gastric Content ([1]; 25 mg/kg) [mL] | Titratable Acidity ([1]; 50 mg/kg) [mEg/L] | Ulcer Index, pylorus-ligated Shay rats ([1]; 50 mg/kg) | Volume of Gastric Content ([1]; 50 mg/kg) [mL] | MDA [2, 4] | MDA [2, 5] | MDA [2, 6] | NP-SH ([3]; dose 12.5) | NP-SH ([3]; dose 25) | NP-SH ([3]; dose 50) | LD50 at 24 h (in vivo) [mg/kg] | Dead (of 10 animals) (mouse; 5 mg/kg) | Dead (of 10 animals) (mouse; 25 mg/kg) | Dead (of 10 animals) (mouse; 50 mg/kg) | Dead (of 10 animals) (mouse; 100 mg/kg) | also measured |
| --- | --- | --- | --- | --- | --- | --- | --- | --- | --- | --- | --- | --- | --- | --- | --- | --- | --- | --- | --- | --- | --- |
| COc1ccccc1C1NC(=O)NC=C1C(=O)c1ccc(N2CCCCC2)cc1 (stereo not shown) [Compound N-8, 4-(2-Methoxyphenyl)-5-[4-(piperidin-1-yl)benzoyl]-3,4-dihydropyrimidin-2(1H)-one] | 161.11 ± 4.36 | 3.16 ± 0.30 | 10.50 ± 0.34 | 133.33 ± 3.22 | 2.50 ± 0.22 | 9.36 ± 1.22 | 115.00 ± 5.75 | 2.00 ± 0.13 | 6.46 ± 0.16 | 6.63 ± 0.26^b nmol/g | 4.83 ± 0.24***^b nmol/g | 3.75 ± 0.07***^b nmol/g | 3.49 ± 0.16^b nmol/g | 3.61 ± 0.12^b nmol/g | 4.61 ± 0.27**^b nmol/g | 55.5 | 0 | 2 | 6 | 9 | Dead (of 10 animals) (mouse; 200 mg/kg): 10; Dead (of 10 animals) (mouse; 300 mg/kg): 10 |
| CN(C)c1ccc(C2NC(=O)NC=C2C(=O)c2ccc(N3CCCCC3)cc2)cc1 (stereo not shown) [Compound N-11, 4-(4-Dimethylaminophenyl)-5-[4-(piperidin-1-yl)benzoyl]-3,4-dihydropyrimidin-2(1H)-one] | 160.55 ± 3.48 | 2.83 ± 0.30 | 10.20 ± 0.29 | 141.11 ± 6.30 | 2.50 ± 0.42 | 7.35 ± 0.19 | 116.66 ± 4.63 | 2.33 ± 0.71 | 6.63 ± 0.21 | 5.16 ± 0.22***^b nmol/g | 3.99 ± 0.17***^b nmol/g | 3.36 ± 0.08***^b nmol/g | 2.93 ± 0.11^b nmol/g | 3.40 ± 0.18^b nmol/g | 4.35 ± 0.11***^b nmol/g | – | – | – | – | – | melting point: 185 to 187 °C |
| COc1ccc(C2NC(=O)NC=C2C(=O)c2ccc(N3CCCCC3)cc2)c(OC)c1OC (stereo not shown) [Compound N-15, 4-(2,3,4-Trimethoxyphenyl)-5-[4-(piperidin-1-yl)benzoyl]-3,4-dihydropyrimidin-2(1H)-one] | 116.11 ± 2.64 | 1.83 ± 0.304 | 6.68 ± 0.18 | 86.11 ± 3.98 | 1.50 ± 0.22 | 5.50 ± 0.24 | 73.33 ± 2.43 | 1.00 ± 0.36 | 4.76 ± 0.23 | 3.51 ± 0.08***^b nmol/g | 2.72 ± 0.10***^b nmol/g | 1.90 ± 0.06***^b nmol/g | 3.38 ± 0.07^b nmol/g | 4.29 ± 0.24**^b nmol/g | 4.92 ± 0.30***^b nmol/g | 116 | 0 | 1 | 3 | 4 | Dead (of 10 animals) (mouse; 200 mg/kg): 9; Dead (of 10 animals) (mouse; 300 mg/kg): 10 |
| O=C1NC=C(C(=O)c2ccc(N3CCCCC3)cc2)C(c2ccc([N+](=O)[O-])cc2)N1 (stereo not shown) [Compound N-3, 4-(4-Nitrophenyl)-5-[4-(piperidin-1-yl)benzoyl]-3,4-dihyropyrimidin-2(1H)-one] | 153.88 ± 5.40 | 2.33 ± 0.33 | 9.03 ± 0.24 | 97.77 ± 2.93 | 1.83 ± 0.304 | 6.31 ± 0.25 | 84.84 ± 2.38 | 1.16 ± 0.30 | 4.63 ± 0.22 | 4.47 ± 0.44***^b nmol/g | 3.07 ± 0.16***^b nmol/g | 1.95 ± 0.05***^b nmol/g | 3.15 ± 0.20^b nmol/g | 4.23 ± 0.23**^b nmol/g | 4.56 ± 0.17***^b nmol/g | 125 | 0 | 0 | 2 | 5 | Dead (of 10 animals) (mouse; 200 mg/kg): 8; Dead (of 10 animals) (mouse; 300 mg/kg): 10 |
